According to patent US8258188B2 (priority 2004, dated 2012):
Where “and” joins values, the source holds several entries; their conditions need not be identical. Equal values may be shown once. Read-outs that look alike come from different tables or passages of the source. Marks after values point to notes of the source that are not given here.

Columns and labels:
[1] = tested on: thymus; conditions: 0.6 g punicic acid/100 g food; least square mean ± SEM
Protocol: (§1) A total of twenty-two C57BL6 mice were used in Experiment 2. All mice were born on Nov. 23, 2003, weaned on Dec. 16, 2003 and fed the experimental diets from Dec. 19, 2003 to Jan. 15, 2004. […] Mice were weighed on a weekly basis. Mice were euthanized. Blood was collected from each mouse for generating serum, which was stored at −20° C. Thymus, spleen and colonic lymph nodes were harvested, weighed and collected in cRPMI in sterile conditions. Colon and liver specimens were collected in RNA later (Ambion Inc., Austin, Tex.) and frozen at −80° C. for gene expression analysis. Brain, kidney, liver, colon and ileum were also collected in a 10% buffered neutral formalin solution and processed as described in experiment 1 for histological evaluation. The remaining portion of the carcass was stored in 50-mL, conical tubes and frozen at −20° C. for body composition and fatty acid analysis. All specimens were generally labeled with the following information: 1) mouse number; 2) date collected; 3) experiment number; 4) type of solvent; and 5) tissue type. Tissue slides were examined in an Olympus microscope (Olympus America Inc., Dulles, Va.). Images were captured using the FlashBus FBG software (Integral Technologies, Indianapolis, Ind.) and processed in Adobe Photoshop Elements 2.0 (Adobe Systems Inc., San Jose, Calif.).
(§2) Spleens, thymuses and colonic lymph nodes were collected in complete RPMI on ice. Single-cell suspensions were obtained from each tissue by gently disrupting the tissue between two frosted ends of two glass slides on a petri dish containing 3 mL of cRPMI. The single-cell suspension was transferred from the petri dish to a 15-mL polypropylene tube (Fisher, Atlanta, Ga.) and washed by centrifuging in an Eppendorf 5810 R centrifuge (Westbury, N.Y.) at 200×g for 5 minutes at 4° C. The supernatant was discarded by decantation of the tube. The cell pellet was broken by gently tapping the tube against a solid surface. The total numbers of spleenocytes, thymocytes and colonic lymph node lymphocytes in each mouse were enumerated in a Z1 Coulter Single Particle Counter (Miami, Fla.). Briefly, 10-mL of isoton II diluent solution (Beckman Coulter, Miami, Fla.) were added into a counting vial, followed by 40 μL of the cell suspension, 4 drops of Zapaglobin (Beckman Coulter, Miami Fla.), and 10 additional mL of the isoton solution. The volume in which the cells were resuspended was assessed using a 5-mL, sterile pipette. The concentration of cells/mL and the total volume in each tube were used to determine the total amount of cells in each tissue and mouse.
(§3) A description of the uses of flow cytometry was provided in Experiment 1. Splenocyte suspensions were freed of erythrocytes by osmotic lysis (adding 4.5 mL of sterile deionized water for 1 to 2 seconds and then adding 0.5 mL of 10× PBS to make 1× PBS solution). Cells were washed again by centrifuging in an Eppendorf 5810 R centrifuge (Westbury, N.Y.) at 200×g for 5 minutes at 4° C. The supernatant was discarded by decantation of the tube. The cell pellet was broken by gently tapping the tube against a solid surface. FACS buffer (1 mL) was added in each tube. Splenocytes, thymocytes and colonic lymph node-derived mononuclear cells were enumerated in a Z1 Coulter Single Particle Counter (Miami, Fla.), adjusted to 2×10^6 cells/mL. Splenocytes, thymocytes, and colonic lymph nodes were analyzed for expression of CD4, CD8, CD3, TCRalphabeta, TCRgammadelta and CD19 molecules by flow cytometry as previously described (Bassaganya-Riera et al. 2001; Bassaganya-Riera et al. 2002; Bassaganya-Riera et al. 2003). Briefly, a volume of 100 μl of the splenocyte, thymocyte, and colonic lymph node lymphocyte suspension was added in to a round-bottomed microtiter plate (Becton Dickinson, Lincoln Park, N.J.) and stained with 50 μl of the primary antibody solutions in FACS buffer.

[2] = tested on: spleen; conditions: 0.6 g punicic acid/100 g food; least square mean ± SEM
Protocol: as §1, §2, §3

[3] = tested on: colonic lymph nodes; conditions: 0.6 g punicic acid/100 g food, least square mean ± SEM
Protocol: as §1, §2, §3

[4] = tested on: lymph node-derived lymphocytes
Protocol: (§4) cRPMI medium was prepared as shown above. Wells of 96-well flat-bottomed microtiter plates (Becton Dickinson, Lincoln Park, N.J.) were seeded with 2×10^5 mononuclear cells in a total volume of 200 μl per well. Wells contained either concanavalin A (5 μg/ml, Con-A; Sigma), or medium alone (non-stimulated). Plates were incubated for 5 days at 37° C. in 5% CO2 humidified atmosphere. After 5 days, 0.5 μCi of methyl-[^3H] thymidine (specific radioactivity 6.7 Ci mmol^−1; Amersham Life Science, Arlington Heights, Ill.) in 10 μl of medium was added to each well and plates incubated for an additional 20 h. Well contents were harvested onto fiber filters with a PHD cell harvester (Skatron Instruments Inc., Sterling, Va.) and incorporated radioactivity measured by liquid scintillation counting (Beckman Instruments, Schaumburg, Ill.). Samples were run in triplicate and stimulation indices (SI) calculated by dividing counts min^−1 of stimulated wells by counts min^−1 from non-stimulated wells.
(§5) Statistical analysis was performed by analysis of variance (ANOVA). […] Differences with a probability value (P<0.05) were considered statistically significant.

[5] = tested on: splenocytes
Protocol: as §4, §5

[6] = tested on: splenocytes stimulated with VR-1469 influenza virus antigens
[7] = 0.6 g punicic acid/100 g food, 38 days, oral
Description: All specimens were generally labeled with the following information: 1) mouse number; 2) date collected; 3) experiment number; 4) type of solvent; and 5) tissue type.

[8] = tested on: C57BL6 mice fed regular or high fat diets; conditions: day 78, least squares mean
Description: (§6) In Western countries, Metabolic Syndrome or Syndrome X (i.e., diabetes, obesity, cardiovascular disease, hypertension and hyperlipidemia) is on a steady rise. […] A total of fifty C57BL6 mice were used in experiment 4. […] These diets are defined as regular diets and were formulated to be isocaloric between treatment groups. […] The high fat diets were also formulated to be isocaloric between treatment groups. The remaining mice within each group (n=5) were fed the regular diets. On day 78 of the experiment, mice were killed, blood was collected and immediately analyzed for fasting glucose concentrations by using the Accu-Check Instant Plus System (Roche Diagnostics Corporation, Indianapolis, Ind.) or stored for subsequent analysis of insulin concentrations in plasma. Abdominal white adipose tissue and interscapular brown adipose tissue were collected, weighed and stored at −80° C. for RNA analyses. Liver, lungs, kidneys, pancreas and heart were examined for macroscopic abnormalities (gross lesions), fixed in phosphate-buffered formalin (10%) and processed as described in experiment 1 for histological evaluation. All specimens were generally labeled with the following information: 1) mouse number; 2) date collected; 3) experiment number; 4) type of solvent; and 5) tissue type.
Serum insulin concentrations were determined by using commercially available enzyme-linked immunosorbent assay kits (Linco Research, St. Charles, Mo.).
Data were analyzed by analysis of variance (ANOVA). The ANOVA was performed by using the general linear model procedure of SAS (SAS Institute Inc., Cary, N.C.) as previously described (Bassaganya-Riera et al. 2004). Differences with probability value (P<0.05) were considered significant.

[9] = punicic acid-supplemented diets, 78 days
Description: as §6

[10] = 105-day dietary supplementation, 0.6 g punicic acid/100 g food
[11] = tested on: C57BL6 mice fed regular or high fat diets; conditions: day 78, intraperitoneal D-glucose after 14 hours fast
Description: as §6
A glucose tolerance test was conducted on day 78 of the experiment. Animals were fasted overnight (14 hours).

[12] = tested on: C57BL6 mice challenged with 2.5% DSS; test: DSS colitis model of experimental IBD (Experiment 1); type: in vivo
[13] = concanavalin A 5 μg/ml, cells from mice fed 0.6 g punicic acid/100 g food
[14] = counts of Con A-stimulated wells divided by counts of non-stimulated wells
[15] = non-stimulated, cells from mice fed 0.6 g punicic acid/100 g food
[16] = 7-day challenge with 2.5% DSS, grade 0 to 4, least square mean ± SEM

In the case of `CCCC\C=C/C=C/C=C\CCCCCCCC(=O)O` [punicic acid], the “thymus: CD4^+ thymocytes” value [1] is reported as 2.51 ± 0.28, the “thymus: CD4^+CD8^+ thymocytes” value [1] is reported as 63.25 ± 8.73 and the “thymus: CD8^+ thymocytes” value [1] is reported as 1.34 ± 0.18. The “thymus: Lymphocytes” value [1] was 69.18 ± 9.56 ×10^6/mL, the “thymus: TCR αβ^+ thymocytes” value [1] was 9.12 ± 1.21 and the “thymus: Weight” value [1] was 845.00 ± 4.68 mg. The “spleen: CD3^+ T cells” value [2] was 30.05 ± 1.78, the “spleen: CD4^+ T cells” value [2] was 17.04 ± 1.10 and the “spleen: CD8^+ T cells” value [2] was 12.72 ± 0.73. The “spleen: CD19^+ T cells” value [2] was 102.22 ± 5.42, the “spleen: TCR αβ^+T cells” value [2] was 33.12 ± 1.93 and the “spleen: Total # of lymphocytes” value [2] was 144.21 ± 7.13 ×10^6/mL. For the same compound, the “spleen: Weight” value [2] was 884.54 ± 3.30 mg, the “colonic lymph nodes: CD3^+ T cells” value [3] was 10.24 ± 0.85 and the “colonic lymph nodes: CD4^+ T cells” value [3] was 6.65 ± 0.58. The “colonic lymph nodes: CD8^+ T cells” value [3] was 4.53 ± 0.41, the “colonic lymph nodes: CD19^+ T cells” value [3] was 5.98 ± 0.72 and the “colonic lymph nodes: Lymphocytes” value [3] was 18.64 ± 1.53 ×10^6/mL. For the same compound, the “colonic lymph nodes: TCR αβ^+T cells” value [3] was 11.78 ± 1.08, the “colonic lymph nodes: Weight” value [3] was 261.66 mg and the “colonic lymph nodes: Weight” value ([3]; listed as Punicic Acid) was 261.66 ± 3.28 mg. For the same compound, the “Counts/minute lymph nodes (cRPMI & ConA)” value [4, 13] was 929.06 ± 161.10 Counts/minute, the “Stimulation index lymph nodes” value [4, 14] was 22.40 ± 3.61 and the “Counts/minute lymph nodes (cRPMI)” value [4, 15] was 43.12 ± 3.76 Counts/minute. For the same compound, the “Counts/minute spleen (cRPMI & ConA)” value [5, 13] was 1905.27 ± 254.42 Counts/minute, the Stimulation index spleen [5, 14] was 25.20 ± 3.16 and the “Counts/minute spleen (cRPMI)” value [5, 15] was 73.17 ± 10.96 Counts/minute. For the same compound, the “Relative Proliferation Index B cells” value [6] was 1.15 ± 0.63 and 1.16 ± 0.27, the “Relative Proliferation Index CD4^+ T cells” value [6] was 0.68 ± 0.48 and 1.10 ± 0.63 and the “adverse effects throughout the duration of the study” value [7] was “No adverse effects were observed”. For the same compound, the “macroscopic and histologic analysis of liver, kidneys and brain” value [7] was “no abnormalities”, the “Brown adipose tissue (interscapular) weight” value ([8]; High Fat Diets) was 0.124 g and the “White adipose tissue (abdominal) weight” value ([8]; High Fat Diets) was 0.830^b g. The “plasma fasting Glucose” value ([8]; High Fat Diets) was 219.5^b mg/dL, the “plasma fasting Insulin” value ([8]; High Fat Diets) was 1.229^b ng/mL and the “Brown adipose tissue (interscapular) weight” value ([8]; Regular Diets) was 0.138 g. The “White adipose tissue (abdominal) weight” value ([8]; Regular Diets) was 0.801^b g, the “plasma fasting Glucose” value ([8]; Regular Diets) was 121.40^b mg/dL and the “plasma fasting Insulin” value ([8]; Regular Diets) was 0.669^b ng/mL. The “fatty liver or enlarged viscera” value [9] was “not observed”, the “H&E histology of brain, kidneys, liver, heart and lungs” value [10] was “no microscopic lesions” and the “adverse effects or clinical signs throughout the study” value [10] was “No negative adverse effects”. For the same compound, the “glucose tolerance versus control diet” value ([11]; high fat diets) was “normalizes impaired glucose tolerance”, the “glucose tolerance versus control diet” value ([11]; regular diets) was “not different” and the “start of rectal bleeding, on average” value ([12]; 0.6 g punicic acid/100 g food, 2.5% DSS challenge) was 7 day of the DSS challenge. The “mortality rate associated with colonic inflammation” value ([12]; 0.6 g punicic acid/100 g food, by day 6 of the 2.5% DSS challenge) was 0%, the “Histological score: Crypt Damage” value [12, 16] was 0.33 ± 0.26 and the “Histological score: Epithelial Erosion” value [12, 16] was 0.00 ± 0.00. For the same compound, the “Histological score: Inflammatory Cell Infiltration” value [12, 16] was 0.50 ± 0.17, the “Histological score: Metaplasia/Hyperplasia” value [12, 16] was 0.50 ± 0.28 and the “Histological score: Mucosal Thickness” value [12, 16] was 1.83 ± 0.24. For the same compound, the “Histological score: Vascular Changes” value [12, 16] was 0.50 ± 0.35, the colitis-associated disease ([12]; diet fed 32 days prior to 7-day DSS challenge (2.5%, wt/vol)) was “improved” and the average colon weights ([12]; following the DSS challenge) was 0.153 grams. For the same compound, the “average macroscopic score in colons (scale from 0 to 3)” value ([12]; following the DSS challenge) was 1.4 and the “histopathological examination of H&E-stained slides of colon” value ([12]; following the DSS challenge) was “no major lesions”.
